Literature values, collected in US7972386B2, “Bleaching of substrates” (Conopco, Inc., priority 2005, dated 2011).

Conditions: at 20° C.

## CN1CCN(C)CCN(C)CC1.CN1CCN(C)CCN(C)CC1.F[P-](F)(F)(F)(F)F.F[P-](F)(F)(F)(F)F.O.[Mn+4].[Mn+4].[O-2].[O-2].[O-2] [[Mn2O3(Me3-TACN)2](PF6)2•H2O, [Mn2O3(Me3-TACN)2] (PF6)2.H2O]
  water solubility: 10.8 g per litre
